How the values were obtained:
Experiment in all cases: relative viability (nuclei count vs DMSO), 5 days (fraction); higher = more cells survive
[1] = compound: O=C(NC1CCNCC1)c1n[nH]cc1NC(=O)c1c(Cl)cccc1Cl [AT-7519] + Nc1ncn([C@H]2C[C@H](O)[C@@H](CO)O2)c(=O)n1 [Decitabine] (partner 2 µM)
Procedure, shortened: (§1)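 Relative viability was taken as the ratio of nuclei in treated wells to nuclei in vehicle wells. Lung cancer cell lines in 1536-well plates received compounds by pin tool one day after seeding, either one drug alone or a fixed anchor-drug dose plus five library-drug doses (not always all listed) in √10 steps. Nuclei were counted on 4× images after 5 days of treatment, and values are medians of duplicate plates.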

[2] = compound: C1=CC2=C(C=C(C(=C2N=C1)O)N=NC3=CC4=C(C=C3)C=C(C=C4)S(=O)(=O)O)S(=O)(=O)O + O=C(c1cc(Cc2n[nH]c(=O)c3ccccc23)ccc1F)N1CCN(C(=O)C2CC2)CC1 [Olaparib] (partner 8 µM)
Procedure, shortened: as §1

[3] = compound: C1=CC2=C(C=C(C(=C2N=C1)O)N=NC3=CC4=C(C=C3)C=C(C=C4)S(=O)(=O)O)S(=O)(=O)O + CS(=O)(=O)CCNCc1ccc(-c2ccc3ncnc(Nc4ccc(OCc5cccc(F)c5)c(Cl)c4)c3c2)o1 [Lapatinib] (partner 2 µM)
Procedure, shortened: as §1

[4] = compound: O=C(NC1CCNCC1)c1n[nH]cc1NC(=O)c1c(Cl)cccc1Cl [AT-7519] + Cc1cc(Nc2cc(N3CCN(C)CC3)nc(Sc3ccc(NC(=O)C4CC4)cc3)n2)n[nH]1 [Tozasertib] (partner 0.1 µM)
Procedure, shortened: as §1

Cell Line | relative viability ([1]; first compound 0.01 µM) | relative viability ([1]; first compound 0.03162 µM) | relative viability ([1]; first compound 0.3162 µM) | relative viability ([1]; first compound 1 µM) | relative viability ([2]; first compound 0.08 µM) | relative viability ([2]; first compound 0.253 µM) | relative viability ([2]; first compound 0.8 µM) | relative viability ([2]; first compound 2.53 µM) | relative viability ([2]; first compound 8 µM) | relative viability ([3]; first compound 0.08 µM) | relative viability ([3]; first compound 0.253 µM) | relative viability ([3]; first compound 0.8 µM) | relative viability ([3]; first compound 2.53 µM) | relative viability ([3]; first compound 8 µM) | relative viability ([4]; first compound 0.01 µM) | relative viability ([4]; first compound 0.03162 µM) | relative viability ([4]; first compound 0.3162 µM) | relative viability ([4]; first compound 1 µM)
HCC-366 | 0.324 | 0.31 | 0.336 | 0.215 | 0.432 | 0.402 | 0.335 | 0.361 | 0.319 | 1.13 | 0.954 | 1.03 | 1.02 | 1.02 | 0.0905 | 0.186 | 0.119 | 0.0621
HCC-827 | 0.337 | 0.347 | 0.355 | 0.3 | 0.68 | 0.524 | 0.647 | 0.568 | 0.687 | 0.19 | 0.159 | 0.185 | 0.189 | 0.188 | 0.399 | 0.403 | 0.447 | 0.645
HOP-62 | 0.224 | 0.203 | 0.217 | 0.23 | 0.403 | 0.376 | 0.312 | 0.465 | 0.516 | 1.32 | 0.925 | 0.972 | 1.05 | 0.993 | 0.344 | 0.279 | 0.353 | 0.399
IA-LM | – | – | – | – | 1.01 | 0.777 | 0.788 | 0.747 | 0.952 | 0.681 | 0.718 | 0.707 | 0.796 | 0.793 | – | – | – | –
LC-2-ad | 0.789 | 0.765 | 0.838 | 0.737 | 0.72 | 0.671 | 0.749 | 0.683 | 0.744 | 0.982 | 0.937 | 0.922 | 0.954 | 0.589 | 0.49 | 0.467 | 0.519 | 0.266
LCLC-97TM1 | 0.281 | 0.207 | 0.196 | 0.169 | 0.41 | 0.38 | 0.432 | 0.338 | 0.32 | – | 0.665 | – | 0.835 | 1.04 | 0.24 | 0.208 | 0.27 | 0.124
LCLC-103H | 0.785 | 0.669 | 0.707 | 0.653 | 0.774 | 0.721 | 0.735 | 0.779 | 0.753 | – | – | – | – | – | 0.489 | 0.408 | 0.511 | 0.432
LK-2 | 0.23 | 0.276 | 0.298 | 0.266 | 0.892 | 0.678 | 0.581 | 0.74 | 0.728 | 0.946 | 0.883 | 0.839 | 0.939 | 0.718 | 0.18 | 0.165 | – | 0.206
LOU-NH91 | 0.761 | 0.791 | 0.795 | 0.739 | 1.01 | 0.907 | 0.927 | 0.881 | 0.919 | 0.868 | 0.79 | 0.755 | 0.781 | 0.781 | 0.722 | 0.679 | 0.676 | 0.57
LU99A | 0.953 | 0.843 | 0.791 | 0.484 | 0.264 | 0.282 | 0.286 | 0.257 | 0.243 | 0.934 | 0.974 | 0.949 | 0.972 | 1.14 | 0.26 | 0.276 | 0.297 | 0.218
LXF-289 | 0.383 | 0.377 | 0.333 | 0.375 | 1.26 | 1 | 0.973 | 1.05 | 1.03 | 0.934 | 0.889 | 0.897 | 0.955 | 0.903 | 0.159 | 0.184 | 0.195 | 0.178
NCI-H23 | 0.296 | 0.296 | 0.298 | 0.254 | 0.27 | 0.339 | 0.343 | 0.324 | 0.359 | 1.31 | 1.02 | 1.03 | 0.984 | 1.18 | 0.332 | 0.361 | 0.337 | 0.395
NCI-H441 | 0.253 | 0.213 | 0.26 | 0.152 | 0.617 | 0.57 | 0.586 | 0.531 | 0.595 | – | – | – | – | – | 0.788 | 0.565 | 0.573 | 0.343
NCI-H522 | 0.648 | 0.588 | 0.662 | 0.644 | 0.601 | 0.625 | 0.564 | 0.561 | 0.708 | – | – | – | – | – | – | 0.514 | 0.57 | 0.486
NCI-H1299 | – | – | – | – | 1.01 | 0.95 | 0.935 | 0.956 | 0.976 | 0.959 | 0.913 | 0.944 | 0.956 | 0.939 | – | – | – | –
NCI-H1563 | – | – | – | – | – | – | – | – | – | 0.957 | 1.02 | 0.916 | 0.976 | 1.13 | – | – | – | –
NCI-H1623 | – | – | – | – | – | – | – | – | – | – | – | – | – | – | 0.378 | 0.401 | 0.518 | 0.393
NCI-H1648 | 0.427 | – | 0.438 | 0.445 | – | 0.793 | – | – | 0.893 | – | – | – | – | – | 0.37 | – | 0.371 | 0.405
NCI-H1703 | – | – | – | – | 0.3 | – | 0.339 | 0.475 | 0.41 | 1.36 | 0.886 | 1.06 | 1.01 | 1.01 | – | – | – | –
NCI-H1792 | 0.405 | 0.488 | 0.495 | 0.54 | 0.579 | 0.253 | 0.355 | 0.507 | 0.432 | 0.996 | 0.853 | 0.834 | 0.916 | 0.913 | – | – | – | –
NCI-H2228 | – | – | – | – | 0.779 | 0.772 | 0.658 | 0.851 | 0.751 | 0.966 | 1.29 | 0.986 | 1.21 | 1.06 | 0.253 | 0.273 | 0.227 | 0.179
NCI-H2342 | 0.709 | 0.61 | 0.701 | 0.631 | 0.476 | 0.466 | 0.452 | 0.462 | 0.711 | – | – | – | – | – | 0.483 | 0.52 | 0.493 | 0.557
SW 900 | 0.437 | 0.435 | 0.422 | 0.32 | 1.1 | 0.826 | 0.75 | 0.878 | 0.757 | – | – | – | – | – | 0.613 | 0.484 | 0.639 | 0.375

Source: the supplement of paper PMC10307832
